Laboratory results from patent US11802111B2, “Cyclobutyl amide monoacylglycerol lipase modulators” (Janssen Pharmaceutica NV, priority 2020, dated 2023).

Biological target: human MGL from HeLa cells (Homo sapiens (Human), UniProt Q99685)
Test: MGL in vitro activity assay ([glycerol-1,3-3H]-oleoyl glycerol hydrolysis, activated carbon filtration)
Assay type: biochemical
Details: 300 nM [Glycerol-1,3-3H]-oleoyl glycerol, one hour
Outline: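 Endogenous human MGL in HeLa cells/homogenates incubated 1 h with test compounds and 300 nM [glycerol-1,3-3H]-oleoyl glycerol. Released 3H-glycerol passing an activated carbon filter counted as activity; screening at 10 μM compound, top IC50 concentration set empirically.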

Chain of human MGL from HeLa cells (Q99685 whole entry): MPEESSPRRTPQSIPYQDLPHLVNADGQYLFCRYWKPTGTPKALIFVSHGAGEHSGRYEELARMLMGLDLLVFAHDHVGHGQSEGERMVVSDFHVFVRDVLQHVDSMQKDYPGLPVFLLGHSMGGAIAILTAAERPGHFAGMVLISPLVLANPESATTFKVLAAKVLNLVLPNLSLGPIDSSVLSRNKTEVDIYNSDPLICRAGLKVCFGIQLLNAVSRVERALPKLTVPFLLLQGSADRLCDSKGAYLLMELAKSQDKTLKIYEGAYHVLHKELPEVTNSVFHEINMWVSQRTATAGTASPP

| IC50 [nM] | SMILES |
| --- | --- |
| 5.4 | Cc1nc([C@H](C)C2CC3(C2)CN(C(=O)[C@H]2C[C@@](C)(O)C2)C3)ccc1C(F)(F)F (stereo in doubt) [Example 312, ((1s,3*S)-3-Hydroxy-3-methylcyclobutyl)(6-((*R)-1-(6-methyl-5-(trifluoromethyl)pyridin-2-yl)ethyl)-2-azaspiro[3.3]heptan-2-yl)methanone] |
| 52 | Cc1nc([C@@H](C)C2CC3(C2)CN(C(=O)[C@H]2C[C@@](C)(O)C2)C3)ccc1C(F)(F)F (stereo in doubt) [Example 313, ((1s,3*R)-3-Hydroxy-3-methylcyclobutyl)(6-((*S)-1-(6-methyl-5-(trifluoromethyl)pyridin-2-yl)ethyl)-2-azaspiro[3.3]heptan-2-yl)methanone] |
| 130 | C[C@@H](c1ccc2cnn(C)c2c1)C1CC2(C1)CN(C(=O)[C@H]1C[C@@](C)(O)C1)C2 (stereo in doubt) [Example 314, ((1s,3*S)-3-Hydroxy-3-methylcyclobutyl)(6-((*R)-1-(1-methyl-1H-indazol-6-yl)ethyl)-2-azaspiro[3.3]heptan-2-yl)methanone] |
| 45 | C[C@H](c1ccc2cnn(C)c2c1)C1CC2(C1)CN(C(=O)[C@H]1C[C@@](C)(O)C1)C2 (stereo in doubt) [Example 315, ((1s,3*R)-3-Hydroxy-3-methylcyclobutyl)(6-((*S)-1-(1-methyl-1H-indazol-6-yl)ethyl)-2-azaspiro[3.3]heptan-2-yl)methanone] |
| 36 | Cc1ccc([C@H]2CCC3(C2)CN(C(=O)[C@H]2C[C@@](C)(O)C2)C3)c(C)c1 (stereo in doubt) [Example 321, ((*S)-6-(2,4-Dimethylphenyl)-2-azaspiro[3.4]octan-2-yl)((1s,3*R)-3-hydroxy-3-methylcyclobutyl)methanone] |
| 64 | Cc1ccc([C@@H]2CCC3(C2)CN(C(=O)[C@H]2C[C@@](C)(O)C2)C3)c(C)c1 (stereo in doubt) [Example 322, ((*R)-6-(2,4-Dimethylphenyl)-2-azaspiro[3.4]octan-2-yl)((1s,3*S)-3-hydroxy-3-methylcyclobutyl)methanone] |
| 326 | Cc1cc(C)cc([C@H]2CC[C@]3(CC2)CN(C(=O)[C@H]2C[C@@](C)(O)C2)[C@H]3C)c1 (stereo in doubt) [Example 348, ((1*S,4r,7*S)-7-(3,5-Dimethylphenyl)-1-methyl-2-azaspiro[3.5]nonan-2-yl)((1s,3*R)-3-hydroxy-3-methylcyclobutyl)methanone] |
| 523 | Cc1cc(C)cc([C@H]2CC[C@]3(CC2)CN(C(=O)[C@H]2C[C@@](C)(O)C2)[C@@H]3C)c1 (stereo in doubt) [Example 349, ((1*R,4r,7*R)-7-(3,5-Dimethylphenyl)-1-methyl-2-azaspiro[3.5]nonan-2-yl)((1s,3*S)-3-hydroxy-3-methylcyclobutyl)methanone] |
| 34 | Cc1cc(C)cc([C@H]2CC[C@@]3(CC2)CN(C(=O)[C@H]2C[C@@](C)(O)C2)[C@H]3C)c1 (stereo in doubt) [Example 350, ((1*S,4s,7*R)-7-(3,5-Dimethylphenyl)-1-methyl-2-azaspiro[3.5]nonan-2-yl)((1s,3*R)-3-hydroxy-3-methylcyclobutyl)methanone] |
| 77 | Cc1cc(C)cc([C@H]2CC[C@@]3(CC2)CN(C(=O)[C@H]2C[C@@](C)(O)C2)[C@@H]3C)c1 (stereo in doubt) [Example 351, ((1*R,4s,7*S)-7-(3,5-Dimethylphenyl)-1-methyl-2-azaspiro[3.5]nonan-2-yl)((1s,3*S)-3-hydroxy-3-methylcyclobutyl)methanone] |
| 4.8 | Cc1nc(O[C@H]2CCC3(C[C@@H]2C)CN(C(=O)[C@H]2C[C@@](C)(O)C2)C3)ccc1C(F)(F)F (stereo in doubt) [Example 444, ((1s,3*R)-3-Hydroxy-3-methylcyclobutyl)((6*S,7*S)-6-methyl-7-((6-methyl-5-(trifluoromethyl)pyridin-2-yl)oxy)-2-azaspiro[3.5]nonan-2-yl)methanone] |
| 33 | Cc1nc(O[C@@H]2CCC3(C[C@H]2C)CN(C(=O)[C@H]2C[C@@](C)(O)C2)C3)ccc1C(F)(F)F (stereo in doubt) [Example 445, ((1s,3*S)-3-Hydroxy-3-methylcyclobutyl)((6*R,7*R)-6-methyl-7-((6-methyl-5-(trifluoromethyl)pyridin-2-yl)oxy)-2-azaspiro[3.5]nonan-2-yl)methanone] |
| 246 | Cc1cc(C2CC3(C2)CN(C(=O)[C@H]2C[C@@](C)(O)C2)C3)ccc1C(F)(F)F [Example 33, ((1s,3s)-3-Hydroxy-3-methylcyclobutyl)(6-(3-methyl-4-(trifluoromethyl)phenyl)-2-azaspiro[3.3]heptan-2-yl)methanone] |
| 25 | CC(C)(C)c1cccc(C2CC3(C2)CN(C(=O)[C@H]2C[C@@](C)(O)C2)C3)n1 [Example 34, (6-(6-(tert-Butyl)pyridin-2-yl)-2-azaspiro[3.3]heptan-2-yl)((1s,3s)-3-hydroxy-3-methylcyclobutyl)methanone] |
| 153 | CC(C)c1cccc(C2CC3(CCN(C(=O)[C@H]4C[C@@](C)(O)C4)C3)C2)c1 (some centres unmarked) [Example 36, ((1s,3s)-3-Hydroxy-3-methylcyclobutyl)(2-(3-isopropylphenyl)-6-azaspiro[3.4]octan-6-yl)methanone] |
| 58 | C[C@]1(O)C[C@@H](C(=O)N2CC3(CCC(c4ccccc4)CC3)C2)C1 [Example 37, ((1s,3s)-3-Hydroxy-3-methylcyclobutyl)(7-phenyl-2-azaspiro[3.5]nonan-2-yl)methanone] |
| 9.7 | C[C@]1(O)C[C@@H](C(=O)N2CC3(CC[C@H](c4ccc(C5CC5)cc4)C3)C2)C1 [Example 50, ((S)-6-(4-Cyclopropylphenyl)-2-azaspiro[3.4]octan-2-yl)((1s,3R)-3-hydroxy-3-methylcyclobutyl)methanone] |

The next lines start with the compound.

| SMILES | IC50 [nM] |
| --- | --- |
| CC(C)(C)c1cccc(C2CC3(C2)CN(C(=O)[C@H]2C[C@@](C)(O)C2)C3)c1 [Example 1, (6-(3-(tert-Butyl)phenyl)-2-azaspiro[3.3]heptan-2-yl)((1s,3s)-3-hydroxy-3-methylcyclobutyl)methanone] | 9.9 |
| CC(C)(C)c1ccc(C2CC3(C2)CN(C(=O)[C@H]2C[C@@](C)(O)C2)C3)cc1 [Example 2, (6-(4-(tert-Butyl)phenyl)-2-azaspiro[3.3]heptan-2-yl)((1s,3s)-3-hydroxy-3-methylcyclobutyl)methanone] | 149 |
| CC(C)c1cccc(C2CC3(C2)CN(C(=O)[C@H]2C[C@@](C)(O)C2)C3)c1 [Example 3, ((1s,3s)-3-Hydroxy-3-methylcyclobutyl)(6-(3-isopropylphenyl)-2-azaspiro[3.3]heptan-2-yl)methanone] | 24 |
| CC(C)c1ccc(C2CC3(C2)CN(C(=O)[C@H]2C[C@@](C)(O)C2)C3)cc1 [Example 4, ((1s,3s)-3-Hydroxy-3-methylcyclobutyl)(6-(4-isopropylphenyl)-2-azaspiro[3.3]heptan-2-yl)methanone] | 128 |
| C[C@]1(O)C[C@@H](C(=O)N2CC3(CC(c4ccc(C5CC5)cc4)C3)C2)C1 [Example 5, (6-(4-Cyclopropylphenyl)-2-azaspiro[3.3]heptan-2-yl)((1s,3s)-3-hydroxy-3-methylcyclobutyl)methanone] | 292 |
| Cc1ccc(C2CC3(C2)CN(C(=O)[C@H]2C[C@@](C)(O)C2)C3)cc1C(F)(F)F [Example 6, ((1s,3s)-3-Hydroxy-3-methylcyclobutyl)(6-(4-methyl-3-(trifluoromethyl)phenyl)-2-azaspiro[3.3]heptan-2-yl)methanone] | 31 |
| C[C@]1(O)C[C@@H](C(=O)N2CC3(CC(c4cccc(C5CC5)c4)C3)C2)C1 [Example 20, (6-(3-Cyclopropylphenyl)-2-azaspiro[3.3]heptan-2-yl)((1s,3s)-3-hydroxy-3-methylcyclobutyl)methanone] | 37 |
| Cc1c(C2CC3(C2)CN(C(=O)[C@H]2C[C@@](C)(O)C2)C3)cccc1C(F)(F)F [Example 21, ((1s,3s)-3-Hydroxy-3-methylcyclobutyl)(6-(2-methyl-3-(trifluoromethyl)phenyl)-2-azaspiro[3.3]heptan-2-yl)methanone] | 112 |
| Cc1ccc(C2CCC3(CC2)CN(C(=O)[C@H]2C[C@@](C)(O)C2)C3)cc1Cl [Example 22, (7-(3-Chloro-4-methylphenyl)-2-azaspiro[3.5]nonan-2-yl)((1s,3s)-3-hydroxy-3-methylcyclobutyl)methanone] | 12 |
| Cc1ccc(C2CC3(C2)CN(C(=O)[C@H]2C[C@@](C)(O)C2)C3)cc1OC(F)(F)F [Example 23, ((1s,3s)-3-Hydroxy-3-methylcyclobutyl)(6-(4-methyl-3-(trifluoromethoxy)phenyl)-2-azaspiro[3.3]heptan-2-yl)methanone] | 45 |
| Cc1ccc(C2CC3(C2)CN(C(=O)[C@H]2C[C@@](C)(O)C2)C3)cc1C1CC1 [Example 27, (6-(3-Cyclopropyl-4-methylphenyl)-2-azaspiro[3.3]heptan-2-yl)((1s,3s)-3-hydroxy-3-methylcyclobutyl)methanone] | 47 |
| Cc1cc(C2CC2)ccc1C1CC2(C1)CN(C(=O)[C@H]1C[C@@](C)(O)C1)C2 [Example 28, (6-(4-Cyclopropyl-2-methylphenyl)-2-azaspiro[3.3]heptan-2-yl)((1s,3s)-3-hydroxy-3-methylcyclobutyl)methanone] | 125 |
| C[C@]1(O)C[C@@H](C(=O)N2CC3(CC(c4ccc5ccncc5c4)C3)C2)C1 [Example 30, ((1s,3s)-3-Hydroxy-3-methylcyclobutyl)(6-(isoquinolin-7-yl)-2-azaspiro[3.3]heptan-2-yl)methanone] | 1180 |
| C[C@]1(O)C[C@@H](C(=O)N2CC3(CC(c4ccc5cnccc5c4)C3)C2)C1 [Example 31, ((1s,3s)-3-Hydroxy-3-methylcyclobutyl)(6-(isoquinolin-6-yl)-2-azaspiro[3.3]heptan-2-yl)methanone] | 1600 |
| C[C@]1(O)C[C@@H](C(=O)N2CC3(CC(c4cccc(N5CCCC5)c4)C3)C2)C1 [Example 32, ((1s,3s)-3-Hydroxy-3-methylcyclobutyl)(6-(3-(pyrrolidin-1-yl)phenyl)-2-azaspiro[3.3]heptan-2-yl)methanone] | 178 |
